Species on record: Rattus norvegicus
Experiment: Open TG-GATES - Regimen: Single
Format: toxicity, organism-based, Sprague-Dawley
Parameters: regimen Single, gender Male, age 6 weeks
Details: in vivo, po, 0 mg/kg, route gavage, dose level Control; for APTT / Bas / Eos / Fbg / Hb / Ht / Lym / MCH / MCHC / MCV / Mono / Neu / PT / Plat / RBC / Ret / WBC: tissue Blood; for LIVER: tissue Liver; for A/G / ALP / ALT / AST / BUN / CRE / Ca / Cl / DBIL / GLC / IP / K / LDH / Na / PL / RALB / TBIL / TC / TG / TP / gamma-GTP: tissue Plasma

C=C(C)[C@H]1Cc2c(ccc3c2O[C@@H]2COc4cc(OC)c(OC)cc4[C@@H]2C3=O)O1 [ROTENONE]
TERMINAL_BW (3 h): 198.4 g | APTT (3 h): 15 s | Bas (3 h): 0% | Eos (3 h): 1% | Fbg (3 h): 207.8 mg/dL | Hb (3 h): 12.6 g/dL | Ht (3 h): 38.3% | Lym (3 h): 76.8% | MCH (3 h): 21 pg | MCHC (3 h): 33% | MCV (3 h): 63.7 fL | Mono (3 h): 5% | Neu (3 h): 17.6% | PT (3 h): 12.1 s | Plat (3 h): 131.6 x10_4/uL | RBC (3 h): 601.6 x10_4/ul | Ret (3 h): 9.8% | WBC (3 h): 98.8 x10_2/uL | LIVER (3 h): 9.4 g | A/G (3 h): 2.3 | ALP (3 h): 1432.2 IU/L | ALT (3 h): 35.8 IU/L | AST (3 h): 70.6 IU/L | BUN (3 h): 12.8 mg/dL | CRE (3 h): 0.3 mg/dL | Ca (3 h): 11 mg/dL | Cl (3 h): 104.6 meq/L | DBIL (3 h): 0.01 mg/dL | GLC (3 h): 188.2 mg/dL | IP (3 h): 8.3 mg/dL | K (3 h): 4.4 meq/L | LDH (3 h): 80.6 IU/L | Na (3 h): 140.4 meq/L | PL (3 h): 139.6 mg/dL | RALB (3 h): 3.7 g/dL | TBIL (3 h): 0.04 mg/dL | TC (3 h): 82.8 mg/dL | TG (3 h): 61.2 mg/dL | TP (3 h): 5.3 g/dL | gamma-GTP (3 h): 1 IU/L | TERMINAL_BW (6 h): 197 g | APTT (6 h): 15.9 s | Bas (6 h): 0% | Eos (6 h): 1% | Fbg (6 h): 218 mg/dL | Hb (6 h): 13.2 g/dL | Ht (6 h): 40.3% | Lym (6 h): 72.2% | MCH (6 h): 21.2 pg | MCHC (6 h): 32.8% | MCV (6 h): 64.5 fL | Mono (6 h): 9% | Neu (6 h): 17.6% | PT (6 h): 12.1 s | Plat (6 h): 122.2 x10_4/uL | RBC (6 h): 625.8 x10_4/ul | Ret (6 h): 8.1% | WBC (6 h): 92.8 x10_2/uL | LIVER (6 h): 8.7 g | A/G (6 h): 2.3 | ALP (6 h): 1181 IU/L | ALT (6 h): 35.4 IU/L | AST (6 h): 67 IU/L | BUN (6 h): 9.6 mg/dL | CRE (6 h): 0.4 mg/dL | Ca (6 h): 10.9 mg/dL | Cl (6 h): 103.4 meq/L | DBIL (6 h): 0.01 mg/dL | GLC (6 h): 181.8 mg/dL | IP (6 h): 9 mg/dL | K (6 h): 4.4 meq/L | LDH (6 h): 87 IU/L | Na (6 h): 139.2 meq/L | PL (6 h): 139.8 mg/dL | RALB (6 h): 3.8 g/dL | TBIL (6 h): 0.048 mg/dL | TC (6 h): 81.8 mg/dL | TG (6 h): 82.8 mg/dL | TP (6 h): 5.4 g/dL | gamma-GTP (6 h): 0.4 IU/L | TERMINAL_BW (9 h): 190.2 g | APTT (9 h): 16 s | Bas (9 h): 0% | Eos (9 h): 1% | Fbg (9 h): 209 mg/dL | Hb (9 h): 13 g/dL | Ht (9 h): 39.4% | Lym (9 h): 74.4% | MCH (9 h): 21.4 pg | MCHC (9 h): 32.9% | MCV (9 h): 64.8 fL | Mono (9 h): 8.4% | Neu (9 h): 16.6% | PT (9 h): 12.2 s | Plat (9 h): 123.2 x10_4/uL | RBC (9 h): 609 x10_4/ul | Ret (9 h): 9.2% | WBC (9 h): 95 x10_2/uL | LIVER (9 h): 8 g | A/G (9 h): 2.5 | ALP (9 h): 1388.2 IU/L | ALT (9 h): 33.6 IU/L | AST (9 h): 64.4 IU/L | BUN (9 h): 9.8 mg/dL | CRE (9 h): 0.3 mg/dL | Ca (9 h): 11 mg/dL | Cl (9 h): 104.2 meq/L | DBIL (9 h): 0.01 mg/dL | GLC (9 h): 182.2 mg/dL | IP (9 h): 10.2 mg/dL | K (9 h): 4.1 meq/L | LDH (9 h): 74.6 IU/L | Na (9 h): 140 meq/L | PL (9 h): 134.2 mg/dL | RALB (9 h): 3.8 g/dL | TBIL (9 h): 0.05 mg/dL | TC (9 h): 81.4 mg/dL | TG (9 h): 42.2 mg/dL | TP (9 h): 5.3 g/dL | gamma-GTP (9 h): 1 IU/L | TERMINAL_BW (24 h): 212.6 g | APTT (24 h): 15.6 s | Bas (24 h): 0% | Eos (24 h): 1% | Fbg (24 h): 220.6 mg/dL | Hb (24 h): 12.6 g/dL | Ht (24 h): 38.4% | Lym (24 h): 69% | MCH (24 h): 21.6 pg | MCHC (24 h): 32.8% | MCV (24 h): 65.9 fL | Mono (24 h): 9.8% | Neu (24 h): 20% | PT (24 h): 12 s | Plat (24 h): 131.2 x10_4/uL | RBC (24 h): 582.6 x10_4/ul | Ret (24 h): 8.3% | WBC (24 h): 108.8 x10_2/uL | LIVER (24 h): 10.1 g | A/G (24 h): 2.5 | ALP (24 h): 1476.8 IU/L | ALT (24 h): 48 IU/L | AST (24 h): 75.8 IU/L | BUN (24 h): 18 mg/dL | CRE (24 h): 0.4 mg/dL | Ca (24 h): 11.5 mg/dL | Cl (24 h): 103.8 meq/L | DBIL (24 h): 0.014 mg/dL | GLC (24 h): 181.6 mg/dL | IP (24 h): 7.2 mg/dL | K (24 h): 4.8 meq/L | LDH (24 h): 93.8 IU/L | Na (24 h): 139 meq/L | PL (24 h): 148.4 mg/dL | RALB (24 h): 3.9 g/dL | TBIL (24 h): 0.042 mg/dL | TC (24 h): 81.2 mg/dL | TG (24 h): 123.6 mg/dL | TP (24 h): 5.5 g/dL | gamma-GTP (24 h): 0.6 IU/L

From ChEMBL document CHEMBL3885861, “Open TG-GATES”
